Assay results from US5612337A, “Substituted morpholine derivatives and their use as therapeutic agents” (Merck Sharp & Dohme Limited, priority 1993, dated 1997).

Test: stability of crystals of the hydrochloride salt
Format: physicochemical
Experimental: Dimethylamine (approximately 10 ml) was condensed at -80° C. in a pressure tube and to this was added a solution of N-(4-azidobut-2-ynyl)-2-(R)-(1-(R)-(3,5-bis(trifluoromethyl) phenyl)ethoxy)-3-(S)-(4-fluorophenyl)morpholine (3.2 g) in dioxan (15 ml). The tube was sealed and the solution was heated at 90° C. for 16 h. The solution was evaporated to dryness and the residue chromatographed on silica gel (eluting with 5% methanol in dichloromethane containing 0.25% ammonia (SG. 0.88)) and the fractions containing the desired product were evaporated in vacuo to give the title compound. To a solution of this residue in diethyl ether was added 1M-HCl in methanol. The solution was evaporated to dryness and redissolved in diethyl ether to give crystals of the title compound hydrochloride salt m.p. 194°-198° C., [α]^22D +65.0° (C=0.5, H2 O).

stability of crystals (at 40° C.): stable for at least five days
stability of crystals (at 40° C./75% relative humidity): stable for at least five days
stability of crystals (at 80° C.): stable for at least five days
stability of crystals (at 2000LUX): stable for at least five days
Structure (SMILES): C[C@@H](O[C@H]1OCCN(Cc2nn[nH]c2CN(C)C)[C@H]1c1ccc(F)cc1)c1cc(C(F)(F)F)cc(C(F)(F)F)c1 [Example 12]
